# Reference: patent US5710135A, “Anthracycline prodrugs, method for preparation as well as their use in selective chemotherapy” (Pharmachemie B.V., priority 1995, dated 1998)
# Structures can show the parent of a compound that is named as a salt. Where two headings read alike, the source gives them in different places.
# How the values were obtained:
# [1] = test system: OVCAR-3 cells; assay: Anti-proliferative effect on OVCAR-3 cells (sulforhodamine B protein dye stain); type: cell-based; conditions: Homo sapiens
# Description: The anti-proliferative effect of daunorubicin, doxorubicin and idarubicin, and of the prodrugs of examples 1 to 6 on OVCAR-3 cells was determined by measuring cell growth with a protein dye stain (H. J. Haisma et al. Br. J. Cancer 1992, 66, 474-478. Cells were harvested with 0.25 trypsin and 0.2% EDTA in PBS to obtain a single cell suspension and seeded in 96-wells tissue culture plates (2×10^6 cells/mL 10 μL/well, 3 wells per concentration). Drug or prodrug was added (10 μL/well) at different concentrations with a range of 3 or more logs. After incubation for 24 hours, 200 μL of culture medium (supplemented DMEM) was added and the cells were grown for another 72 hours. Cells were fixed with 25% trichloroacetic acid for 1 hour at 4° C. and washed with water. After staining the cells with 0.4% sulforhodamine B in 1% (v/v) acetic acid for 15 min. at room temperature, they were washed with 1% acetic acid and air-dried. The bound dye was solubilized with 10 mM unbuffered Tris and the absorbance was read at 492 nm. The absorbance was linear with cell concentrations from 1,000 to 200,000 cells/well. Separate wells were fixed 24 hours after seeding to substract background staining. The anti-proliferative effects were determined and expressed as IC50 values which are the (pro)drug concentrations that gave 50% growth inhibition when compared to control cell growth.
# [2] = target: T1, β-glucuronidase (Homo sapiens, UniProt P08236); assay: Enzyme hydrolysis half-life with β-glucuronidase; type: biochemical; conditions: 100 μM prodrug, pH 6.8, 0.03 U/mL β-glucuronidase, 37° C.; read-out: T1/2 (min.) of enzyme hydrolysis
# T1 sequence (P08236 23-651): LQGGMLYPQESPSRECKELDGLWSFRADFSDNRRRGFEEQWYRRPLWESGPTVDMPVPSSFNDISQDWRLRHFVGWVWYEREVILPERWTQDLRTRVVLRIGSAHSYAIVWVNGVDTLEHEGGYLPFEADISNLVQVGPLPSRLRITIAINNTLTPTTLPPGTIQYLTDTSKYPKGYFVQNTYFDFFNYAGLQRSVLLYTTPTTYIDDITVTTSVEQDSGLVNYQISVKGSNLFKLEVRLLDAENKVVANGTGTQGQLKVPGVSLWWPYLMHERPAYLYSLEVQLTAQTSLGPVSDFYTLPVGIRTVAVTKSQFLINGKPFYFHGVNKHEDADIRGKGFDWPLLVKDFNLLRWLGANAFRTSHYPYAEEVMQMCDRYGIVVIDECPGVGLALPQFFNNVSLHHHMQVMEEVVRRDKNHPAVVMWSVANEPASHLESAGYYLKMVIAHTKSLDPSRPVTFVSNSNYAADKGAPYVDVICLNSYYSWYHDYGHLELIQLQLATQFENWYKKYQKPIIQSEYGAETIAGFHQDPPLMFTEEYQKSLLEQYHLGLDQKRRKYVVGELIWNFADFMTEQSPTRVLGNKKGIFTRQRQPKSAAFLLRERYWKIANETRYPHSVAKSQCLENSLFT
# Description: (§1) Half-lifes of enzyme hydrolysis were determined by incubating 100 μM prodrug at pH =6.8 with 0.03 U/mL β-glucuronidase or 0.3 U/mL β-glucosidase or β-galactosidase at 37° C.
# [3] = Enzyme hydrolysis half-life with β-glucosidase; type: biochemical; conditions: 100 μM prodrug, pH 6.8, 0.3 U/mL β-glucosidase, 37° C.; read-out: T1/2 (min.) of enzyme hydrolysis
# Description: as §1
# [4] = OVCAR-3 cells, 24 hours incubation with (pro)drug, then grown another 72 hours, read-out: IC50 (μM), (pro)drug concentration giving 50% growth inhibition
# [5] = OVCAR-3, read-out: IC50 (μM), (pro)drug concentration giving 50% growth inhibition
"IC50 [1, 4]",half-life at 100 µM [3],Compound,half-life at 100 µM [2],"IC50 [1, 5]"
> 10 µM,,"COc1cccc2c1C(=O)c1c(O)c3c(c(O)c1C2=O)C[C@@](O)(C(=O)CO)C[C@@H]3O[C@H]1C[C@H](NC(=O)OCc2ccc(NC(=O)O[C@@H]3O[C@H](C(=O)O)[C@@H](O)[C@H](O)[C@H]3O)cc2)[C@H](O)[C@H](C)O1 [1b-para, N-[4-(doxorubicin-N-carbonyl-oxymethyl)phenyl] O-β-glucuronyl carbamate sodium salt]",2.83 h,
> 1 µM,,"CC(=O)[C@]1(O)Cc2c(O)c3c(c(O)c2[C@@H](O[C@H]2C[C@H](NC(=O)OCc4ccc(NC(=O)O[C@@H]5O[C@H](C(=O)O)[C@@H](O)[C@H](O)[C@H]5O)cc4)[C@H](O)[C@H](C)O2)C1)C(=O)c1ccccc1C3=O [1c-para, N-[4-(idarubicin-N-carbonyl-oxymethyl)phenyl] O-β-glucuronyl carbamate sodium salt]",2 h,
20 µM,> 8.33 h,"COc1cccc2c1C(=O)c1c(O)c3c(c(O)c1C2=O)C[C@@](O)(C(C)=O)C[C@@H]3O[C@H]1C[C@H](NC(=O)OCc2ccc(NC(=O)O[C@@H]3O[C@H](CO)[C@@H](O)[C@H](O)[C@H]3O)cc2)[C@H](O)[C@H](C)O1 [1d-para, N-[4-(daunorubicin-N-carbonyl-oxymethyl)phenyl] O-β-glucosyl carbamate]",,
,,"COc1cccc2c1C(=O)c1c(O)c3c(c(O)c1C2=O)C[C@@](O)(C(C)=O)C[C@@H]3O[C@H]1C[C@H](N)[C@H](O)[C@H](C)O1 [12a, daunorubicin, reference compound]",,1.2 µM
,,"COc1cccc2c1C(=O)c1c(O)c3c(c(O)c1C2=O)C[C@@](O)(C(=O)CO)C[C@@H]3O[C@H]1C[C@H](N)[C@H](O)[C@H](C)O1 [12b, doxorubicin, reference compound]",,1 µM
0.1 µM,,"CC(=O)[C@]1(O)Cc2c(O)c3c(c(O)c2[C@@H](O[C@H]2C[C@H](N)[C@H](O)[C@H](C)O2)C1)C(=O)c1ccccc1C3=O [12c, idarubicin, reference compound]",,

Compound,"IC50 [1, 4]",half-life at 100 µM [3],half-life at 100 µM [2],"IC50 [1, 5]"
"COc1cccc2c1C(=O)c1c(O)c3c(c(O)c1C2=O)C[C@@](O)(C(C)=O)C[C@@H]3O[C@H]1C[C@H](NC(=O)OCc2ccccc2NC(=O)O[C@@H]2O[C@H](C(=O)O)[C@@H](O)[C@H](O)[C@H]2O)[C@H](O)[C@H](C)O1 [1a-ortho, N-[2-(daunorubicin-N-carbonyl-oxymethyl)phenyl] O-β-glucuronyl carbamate sodium salt]",20 µM,,2.08 h,
"COc1cccc2c1C(=O)c1c(O)c3c(c(O)c1C2=O)C[C@@](O)(C(C)=O)C[C@@H]3O[C@H]1C[C@H](NC(=O)OCc2ccc(NC(=O)O[C@@H]3O[C@H](C(=O)O)[C@@H](O)[C@H](O)[C@H]3O)cc2)[C@H](O)[C@H](C)O1 [1a-para, N-[4-(daunorubicin-N-carbonyl-oxymethyl)phenyl] O-β-glucuronyl carbamate sodium salt]",22 µM,,2.25 h,
